Reference: PMC7284125, “Identification of annotated bioactive molecules that impair motility of the blood fluke Schistosoma mansoni” (International Journal for Parasitology: Drugs and Drug …, 2020)
Read-outs that look alike come from different tables or passages of the source.

Assays:
Assay type in all cases: cell-based, Schistosoma mansoni
S. mansoni adult worms = assay: Motility assay on adult parasites (pixel displacement, relative to DMSO control); conditions: 10 μM; for Fractional motility: secondary screen; for motility phenotype in words: adults, long-term after washout
Protocol: Adult parasites were collected from 40 day-old female CD1 mice (Charles River) previously inoculated by the tail infection method ([Lewis, 2001]). Six weeks post-infection, mice were sacrificed, and adult worms extracted after perfusion of in the hepatic portal vein and mesenteric venules ([Lewis, 2001]). Animal procedures were reviewed and approved by the Facility Animal Care Committee of McGill University (Protocol No. 3346) and were conducted in accordance with the guidelines of the Canadian Council on Animal Care.
(§1) Schistosomulae (200/well) and adult parasites (unpaired worms) were maintained in 300 μL OPTI-MEM with 5% dialyzed FBS (without antibiotics) and exposed to compounds at 1 and 10 μM for 24 h. A kinetic assay consisting of 1, 3, 6 and 12 h incubation times was performed on selected hits by motility monitoring using a stereo microscope (SMZ1270, Nikon) for adults and an inverted microscope for schistosomulae (eclipse TE2000-U, Nikon) connected to a monochrome camera (DS-Qi2, Nikon) for image acquisition. Images were recorded at a rate of 10 frames/s for a period of 1 min and videos were analyzed using ImageJ software (version 1.41, NIH, USA). Parasite movement quantification and data analysis protocols were applied using the pixel displacement method ([Patocka et al., 2014]; [Rashid et al., 2015]) and compared to control parasites treated with DMSO. Parasites were then washed several times in Opti-MEM, 5% FBS and incubated up to an additional three days (schistosomulae) or five days (adult worms) at 37 °C, 5% CO2 and motility was recorded as described above.

[1] = tested on: S. mansoni schistosomulae; assay: Motility assay on schistosomulae (pixel displacement, relative to DMSO control); conditions: for activity at 1 µM: Schistosoma mansoni, read-out: Fractional motility
Protocol: Puerto Rican strain Biomphalaria glabrata snails infected with S. mansoni were kindly provided by Dr. Fred Lewis (Biomedical Research Institute and BEI Resources, MD, USA). Schistosomulae were obtained by exposing six to eight weeks-old snails to continuous light for 2 h at 32 °C. The resulting suspension of cercaria was then mechanically transformed as described ([Lewis, 2001]) and cultured in Opti-MEM/antibiotics (Thermo Fisher Scientific, Waltham, MA) containing 100 μg/mL streptomycin and 100 units/ml penicillin supplemented with 5% fetal bovine serum (FBS; Thermo Fisher). Parasite cultures were incubated at 37 °C with 5% CO2 for at least 10 days with no apparent loss of viability. At this point, animals with internal dark granulations and with no observable body contraction/relaxation cycles were considered dead.
as §1

[2] = tested on: S. mansoni schistosomulae; assay: Phenotypic primary screen assay on schistosomulae (phenotype; viability by methylene blue dye exclusion); conditions: for Viability (%) / Phenotype: three-day-old schistosomulae, 10 μM, 24 h; for Viability (%): calculated 5 days post compound exposure; for Phenotype: estimated 5 days post compound exposure
Protocol: Puerto Rican strain Biomphalaria glabrata snails infected with S. mansoni were kindly provided by Dr. Fred Lewis (Biomedical Research Institute and BEI Resources, MD, USA). Schistosomulae were obtained by exposing six to eight weeks-old snails to continuous light for 2 h at 32 °C. […] At this point, animals with internal dark granulations and with no observable body contraction/relaxation cycles were considered dead.
Schistosomulae were monitored under a stereo microscope (SMZ1270, Nikon). Phenotypic observations were made by analyzing schistosomulae, 24 h after drug addition to assess any immediate effect and five days post-compound exposure to observe long-term impacts on both the movement and overall body shape in comparison to control animals exposed to DMSO only.

[3] = schistosomulae, secondary screen, 24h exposure, read at D1, 1 µM
[4] = schistosomulae, secondary screen, 24h exposure, read at D1, 10 µM
[5] = schistosomulae, 1h exposure, read at D1, 10 µM
[6] = schistosomulae, 1h exposure, read at D5, 10 µM
[7] = schistosomulae, 3h exposure, read at D1, 10 µM
[8] = schistosomulae, 3h exposure, read at D5, 10 µM
[9] = schistosomulae, 6h exposure, read at D1, 10 µM
[10] = schistosomulae, 6h exposure, read at D5, 10 µM
[11] = schistosomulae, secondary screen, 24h exposure, read at D5, 1 µM
[12] = schistosomulae, secondary screen, 24h exposure, read at D5, 10 µM
[13] = 120 h, schistosomulae, secondary screen, 24h exposure, read at D5, 1 µM

Fractional motility (S. mansoni adult worms; D1, Female adult worms)	Fractional motility (S. mansoni adult worms; D1, Male adult worms)	Fractional motility (S. mansoni adult worms; D5, Female adult worms)	Fractional motility (S. mansoni adult worms; D5, Male adult worms)	Fractional motility [1, 3]	Fractional motility [1, 4]	motility phenotype in words (S. mansoni adult worms)	Fractional motility [1, 5]	Fractional motility [1, 7]	Fractional motility [1, 8]	Fractional motility [1, 9]	Fractional motility [1, 10]	Fractional motility [1, 11]	Fractional motility [1, 12]	SMILES	Viability (%) [2]	Phenotype [2]	also measured
-0.48	0.41	-0.43	0.0454	2.11	2.52	–	–	–	–	–	–	–	–	C#CC[C@H](c1nc2cc(Cl)ccc2c(=O)n1Nc1ccccc1)N(CCCN)C(=O)c1cccc(Cl)c1F [ARQ 621]	13%	dark, granulated	–
-0.12	0.58	-0.93	-0.57	0.62	1.68	Significant hypomotility	1.70	5.60	-0.68	2.17	-0.70	0.15	-0.81	COc1cc(N2CCC(N)CC2)ccc1Nc1ncc(Cl)c(-c2c[nH]c3ccccc23)n1 [AZD3463]	42,5%	dark, granulated	Fractional motility [1, 6]: -0.84
-0.10	0.12	-0.83	-0.19	0.41	-0.71	–	–	–	–	–	–	-0.07	-0.90	O=C(NC(NC(=S)Nc1ccc(F)c([N+](=O)[O-])c1)C(Cl)(Cl)Cl)C(c1ccccc1)c1ccccc1 (stereo not drawn) [CGK 733]	62,5%	dark, granulated, some big	–
-0.44	-0.49	-0.35	-0.57	0.25	1.01	–	–	–	–	–	–	0.27	0.27	Cc1nc(C#Cc2ccnc(Cl)c2)c(C)n1-c1ccc(OC(F)(F)F)cc1 [CTEP]	99%	big, granulated, blebbing	–
0.29	0.29	-0.91	-0.65	7.69	6.82	severely paralyzed adults	-0.96	1.19	-0.88	0.41	-0.13	-0.29	4.98	c1ccc(CNc2nc(NCc3ccccc3)c3ccccc3n2)cc1 [DBeQ]	15,5%	dark, granulated	Fractional motility [1, 6]: -0.93
0.25	0.85	-0.62	-0.29	3.03	0.07	–	–	–	–	–	–	0.99	-0.94	CCn1c2ccccc2c2cc(Nc3ccnc(NCCCN4CCOCC4)n3)ccc21 [EHop-016]	80%	big, dark	–
-0.0455	-0.11	-0.64	-0.63	0.46	-0.85	Significant hypomotility	0.43	-0.55	-0.56	-0.78	-0.70	0.88	-1.00	CCOC(=O)CCNc1cc(N2CCc3ccccc3CC2)nc(-c2ccccn2)n1 [GSK J4]	5%	big, dark, granulated	Fractional motility [1, 6]: 0.28
1.22	4.15	–	-0.56	3.71	-1.00	–	-0.51	-0.95	-0.09	-0.74	-0.71	1.04	-0.99	CCc1ccc(OCc2ccccc2C(=O)Nc2ccc3nc(C)cc(N)c3c2)cc1 [JTC-801]	0%	big, granulated	effect on viability of schistosomulae in words ([2]; 24 h incubation, five days): lethal
0.29	0.78	-0.84	-0.87	3.02	11.26	Significant hypomotility	9.63	-0.97	-0.97	-0.98	-0.92	-0.46	-0.80	c1cc(-c2cnn3cc(-c4ccc(N5CCNCC5)cc4)cnc23)c2cccnc2c1 [LDN-212854]	0%	dark, granulated	Fractional motility [1, 6]: -0.87; motility in extended assay with reduced incubation times, in words ([1]; three-day old schistosomulae, incubation 1 h, 3 h, 6 h): significant and sustained hypomotility
-0.74	0.53	-0.89	-0.87	1.58	-0.66	Significant hypomotility	–	–	–	–	–	-0.08	-0.55	CCCCCCCCCCCCCCCCn1cc[n+](Cc2ccccc2)c1C.[I-] [NH125]	18%	big, dark, granulated	–
-0.13	-0.16	-0.84	-0.08	0.0562	0.59	–	–	–	–	–	–	-0.75	-0.93	C/C(=N\NC(=S)N1CCC1)c1ccccn1 [NSC319726]	68%	dark, granulated	–

SMILES	Fractional motility (S. mansoni adult worms; D1, Female adult worms)	Fractional motility (S. mansoni adult worms; D1, Male adult worms)	Fractional motility (S. mansoni adult worms; D5, Female adult worms)	Fractional motility (S. mansoni adult worms; D5, Male adult worms)	Fractional motility [1, 3]	Fractional motility [1, 4]	motility phenotype in words (S. mansoni adult worms)	Fractional motility [1, 5]	Fractional motility [1, 7]	Fractional motility [1, 8]	Fractional motility [1, 9]	Fractional motility [1, 10]	Fractional motility [1, 11]	Fractional motility [1, 12]	Viability (%) [2]	Phenotype [2]	also measured
CCCCc1oc2ccccc2c1C(=O)c1cc(I)c(OCCN(CC)CC)c(I)c1 [Amiodarone]	-0.67	-0.41	-0.58	-0.38	–	-0.80	–	–	–	–	–	–	–	-0.98	–	big, granulated	activity at 1 µM [1, 13]: 78%; activity at 1 µM [1, 3]: -11%
O=c1[nH]c2ccc(Cl)cc2c(N[C@@H]2CN3CCC2CC3)c1-c1nc2ccccc2[nH]1 [CHIR-124]	4.53	10.48	-0.48	-0.25	–	–	–	–	–	–	–	–	–	–	77%	big	Fractional motility ([1]; Selleckchem customized library secondary screen, 24h, D1, 1 µM): 6.60; Fractional motility ([1]; Selleckchem customized library secondary screen, 24h, D1, 10 µM): 100.65
O=C(C1CCCCC1)N1CC(=O)N2CCc3ccccc3C2C1 (stereo not drawn) [PZQ, praziquantel]	-0.96	-0.98	-0.98	-0.99	–	-0.47	–	–	–	–	–	–	–	-0.47	–	–	activity at 1 µM [1, 13]: -29%; activity at 1 µM [1, 3]: -30%
